According to article PMC10649008 (Antimicrobial Agents and Chemotherapy, 2023):
Like-named read-outs stand apart in the source and are kept apart here.

Experiments:
[1] = Single-dose plasma pharmacokinetics of telavancin in pediatric subjects (noncompartmental analysis); assay type: in vivo, human; settings: single 10 mg/kg IV infusion over 60 min; for Tmax / Cmax / half-life: iv; for Tmax: median (minimum–maximum), read-out: T max (time at maximum concentration); for Cmax: read-out: C max (maximum plasma concentration); for half-life: read-out: T 1/2 (terminal elimination half-life) (converted)
Procedure: The drug was infused over 60 min on Day 1. Blood samples were collected at 1, 1.5, 2, 6, 12, and 24 h following the start of infusion for PK analysis.
Subjects with missing early PK samples were included in the PK population for plasma concentrations at each collected time point, but they were excluded from the PK modeling. […] The primary endpoints calculated from the plasma concentration-time data were maximum observed plasma concentration (C max), time to reach maximum plasma concentration (T max), area under the plasma concentration versus time curve from time 0 to the last sample with measurable analyte concentration (AUC0-last), area under the concentration versus time curve extrapolated to infinity (AUCinf), and terminal elimination half-life (T 1/2). CL and apparent steady-state volume of distribution (Vss) were also calculated from the plasma concentration-time data. PK parameters were calculated using noncompartmental analysis with Phoenix WinNonlin v8.1 (Certara, Princeton, NJ, USA).
For calculation of mean concentrations at each time point and generation for mean concentration versus time profiles, all values below the limit of quantification (BLQ) were set to 0. […] For the NCA, actual infusion durations and actual sampling times were used. Infusion duration was calculated as the difference between the start of infusion time and the end of infusion time. Actual sampling times were calculated as the difference between the start of infusion time and the sampling time.
For PK analysis and individual concentration versus time plots, a concentration that was BLQ was assigned a value of 0, if it occurred in a profile before the first measurable concentration and was set to missing thereafter, if two BLQ values occurred in succession after C max, the profile was deemed to have terminated at the first BLQ value, and any subsequent concentrations were omitted from PK calculations.

[2] = Source text: All study procedures were reviewed and approved by the respective Institutional Review Board for each study site. Prior to any study procedures, written informed consent from a parent or legal guardian and assent (if appropriate for older patients) were obtained. The patient population consisted of subjects aged >12 months to <17 years of age who required systemic antibiotic therapy for the treatment or prevention of known or suspected bacterial infection. Subjects were enrolled into four cohorts stratified by age: adolescents (12–17 years of age), older children (6–11 years of age), younger children (2–5 years of age), and infants (1–2 years of age). […] The study consisted of a screening period followed by a treatment period and a safety follow-up period through Day 8 ± 1 day.
Safety was monitored during both the screening and treatment periods by physical exams, vital signs, urinalysis, and clinical laboratory measures (complete blood count with differential, serum chemistry, creatinine, and liver enzymes); AEs and concomitant medications were recorded from screening through follow-up on Day 8 (± 1 day). Medical and medication history and demographics were collected at screening. Vital signs (heart rate, blood pressure, respiratory rate, and body temperature) were collected at screening, Days 1 and 2 of the study.

[3] = Cohort 2 (6–11 years), N = 6, plasma, noncompartmental, mean ± SD
[4] = Cohort 3 (2–5 years), N = 1, plasma, noncompartmental
[5] = human, in vivo, 10 mg/kg, Cohort 1 (12–17 years), N = 13, plasma, mean ± SD
[6] = human, in vivo, 10 mg/kg, Cohort 2 (6–11 years), N = 6, plasma, mean ± SD
[7] = Cohort 1 (12–17 years), of 16 AEs, single 10 mg/kg IV

SMILES: CCCCCCCCCCNCCN[C@@]1(C)C[C@H](O[C@H]2[C@H](Oc3c4cc5cc3Oc3ccc(cc3Cl)[C@@H](O)[C@@H](NC(=O)[C@@H](CC(C)C)NC)C(=O)N[C@@H](CC(N)=O)C(=O)N[C@H]5C(=O)N[C@H]3C(=O)N[C@H](C(=O)N[C@H](C(=O)O)c5cc(O)c(CNCP(=O)(O)O)c(O)c5-c5cc3ccc5O)[C@H](O)c3ccc(c(Cl)c3)O4)O[C@H](CO)[C@@H](O)[C@@H]2O)O[C@@H](C)[C@H]1O [telavancin]
- Mean plasma telavancin concentration ([1]; Cohort 1 (12–17 years), N = 13–14, nominal time 1 h after start of infusion, mean ± SD): 58.1 ± 8.38
- Mean plasma telavancin concentration ([1]; Cohort 1 (12–17 years), N = 13–14, nominal time 1.5 h, mean ± SD): 46.2 ± 7.01
- Mean plasma telavancin concentration ([1]; Cohort 1 (12–17 years), N = 13–14, nominal time 2 h, mean ± SD): 37.4 ± 5.26
- Mean plasma telavancin concentration ([1]; Cohort 1 (12–17 years), N = 13–14, nominal time 6 h, mean ± SD): 19.8 ± 3.58
- Mean plasma telavancin concentration ([1]; Cohort 1 (12–17 years), N = 13–14, nominal time 12 h, mean ± SD): 8.84 ± 3.51
- Mean plasma telavancin concentration ([1]; Cohort 1 (12–17 years), N = 13–14, nominal time 24 h, mean ± SD): 2.14 ± 0.922
- CL (clearance) ([1]; Cohort 2 (6–11 years), N = 6, mean ± SD): 0.5 ± 0.135 mL/min/kg
- AUC0-inf (area under the curve extrapolated to infinity) [1, 3]: 351 ± 79.7 µg·h/mL
- AUC0-last (area under the curve from time zero until the last PK sample) [1, 3]: 333 ± 74.2 µg·h/mL
- Mean plasma telavancin concentration ([1]; Cohort 2 (6–11 years), N = 6–7, nominal time 1 h after start of infusion, mean ± SD): 60.1 ± 11.9
- Mean plasma telavancin concentration ([1]; Cohort 2 (6–11 years), N = 6–7, nominal time 1.5 h, mean ± SD): 48.4 ± 8.66
- Mean plasma telavancin concentration ([1]; Cohort 2 (6–11 years), N = 6–7, nominal time 2 h, mean ± SD): 41.9 ± 7.65
- Mean plasma telavancin concentration ([1]; Cohort 2 (6–11 years), N = 6–7, nominal time 6 h, mean ± SD): 20.7 ± 3.64
- Mean plasma telavancin concentration ([1]; Cohort 2 (6–11 years), N = 6–7, nominal time 12 h, mean ± SD): 9.20 ± 2.50
- Mean plasma telavancin concentration ([1]; Cohort 2 (6–11 years), N = 6–7, nominal time 24 h, mean ± SD): 2.08 ± 1.23
- CL (clearance) ([1]; Cohort 3 (2–5 years), N = 1): 0.728 mL/min/kg
- T max (time at maximum concentration) ([1]; Cohort 3 (2–5 years), N = 1): 1.18 h
- Mean plasma telavancin concentration ([1]; Cohort 3 (2–5 years), N = 1, nominal time 1 h after start of infusion): 53.1
- Mean plasma telavancin concentration ([1]; Cohort 3 (2–5 years), N = 1, nominal time 1.5 h): 45.0
- Mean plasma telavancin concentration ([1]; Cohort 3 (2–5 years), N = 1, nominal time 2 h): 37.3
- Mean plasma telavancin concentration ([1]; Cohort 3 (2–5 years), N = 1, nominal time 6 h): 18.0
- Mean plasma telavancin concentration ([1]; Cohort 3 (2–5 years), N = 1, nominal time 12 h): 2.67
- Mean plasma telavancin concentration ([1]; Cohort 3 (2–5 years), N = 1, nominal time 24 h): 0.146
- C max (maximum plasma concentration) ([1]; Cohort 3 (2–5 years), N = 1, plasma): 53.1 µg/mL
- T 1/2 (terminal elimination half-life) ([1]; Cohort 3 (2–5 years), N = 1, plasma, 10 mg/kg): 2.73 h
- AUC0-inf (area under the curve extrapolated to infinity) [1, 4]: 229 µg·h/mL
- AUC0-last (area under the curve from time zero until the last PK sample) [1, 4]: 228 µg·h/mL
- Tmax ([1]; human, in vivo, 10 mg/kg, Cohort 1 (12–17 years), N = 13): 1.02 h
- Cmax [1, 5]: 58.3 ± 8.4 µg/mL
- half-life [1, 5]: 5.6 ± 1.01 h
- Tmax ([1]; human, in vivo, 10 mg/kg, Cohort 2 (6–11 years), N = 6): 1.09 h
- Cmax [1, 6]: 60.1 ± 11.9 µg/mL
- half-life [1, 6]: 5.19 ± 0.751 h
- clearance ([1]; human, in vivo, Cohort 1 (12–17 years), N = 13, mean ± SD, read-out: CL (clearance) (converted)): 0.497 mL/min/kg
- AUC(0-inf) ([1]; human, in vivo, Cohort 1 (12–17 years), N = 13, plasma, noncompartmental, mean ± SD, read-out: AUC0-inf (area under the curve extrapolated to infinity)): 345 ± 58.5 µg·h/mL
- AUC(0-t) ([1]; human, in vivo, Cohort 1 (12–17 years), N = 13, plasma, noncompartmental, mean ± SD, read-out: AUC0-last (area under the curve from time zero until the last PK sample)): 326 ± 50 µg·h/mL
- Number of adverse events ([2]; Cohort 1 (12–17 years), N = 14, across six patients, single 10 mg/kg IV): 16
- Adverse events deemed probably related to telavancin administration ([2]; Cohort 1 (12–17 years), fifteen of the 16 events): 94%
- Number of adverse events mild in severity [2, 7]: 13
- Number of adverse events moderate in severity [2, 7]: 3
- Number of adverse events ([2]; Cohort 2 (6–11 years), N = 7, across four patients, single 10 mg/kg IV): 11
- Number of adverse events mild in severity ([2]; Cohort 2 (6–11 years), of 11 AEs, single 10 mg/kg IV): nine
